Assay: xn = mol fraction of the nth substance listed
Details: 101 kPa

CCCO + CCCCCCCCn1cc[n+](C)c1.[Cl-]
x1 = 1
Details | speed of sound [m/s] | viscosity [mPa·s]
298.15 K | 1205 | 1.951
313.15 K | 1155 | 1.383
328.15 K | 1105 | 1.007

CCO + CCCCCCCCn1cc[n+](C)c1.[Cl-]
x1 = 1
Details | speed of sound [m/s] | viscosity [mPa·s]
298.15 K | 1143 | 1.085
313.15 K | 1093 | 0.826
328.15 K | 1043 | 0.641

CO + CCCCCCCCn1cc[n+](C)c1.[Cl-]
x1 = 1
Details | speed of sound [m/s] | viscosity [mPa·s]
298.15 K | 1103 | 0.543
328.15 K | 1008 | 0.369

CCCCCCCCn1cc[n+](C)c1.[Cl-] + CCCO
Details | speed of sound, 298.15 K [m/s] | speed of sound, 313.15 K [m/s] | speed of sound, 328.15 K [m/s] | viscosity, 298.15 K [mPa·s] | viscosity, 313.15 K [mPa·s] | viscosity, 328.15 K [mPa·s]
x2 = 0 | – | 1624 | – | – | 4100 | –
x2 = 0.1071 | 1659 | 1584 | – | 7200 | 1720 | –
x2 = 0.2407 | 1593 | 1539 | – | 2056 | 650 | –
x2 = 0.3036 | 1566 | 1517 | – | 910 | 334 | –
x2 = 0.407 | 1531 | – | 1445 | 386 | – | 77.4
x2 = 0.4887 | 1504 | 1461 | 1421 | 179 | 84.1 | 42.7
x2 = 0.6209 | 1456 | 1414 | – | 50.81 | 28.81 | –
x2 = 0.7248 | – | 1369 | – | – | 12.22 | –
x2 = 0.8516 | 1342 | 1296 | 1250 | 6.34 | 4.4 | 3.189
x2 = 0.9024 | – | 1257 | 1211 | – | 3.23 | 2.352
x2 = 0.94 | 1271 | 1223 | – | 3.238 | 2.293 | –
x2 = 0.9729 | 1238 | 1188 | – | 2.648 | 1.878 | –

CCCCCCCCn1cc[n+](C)c1.[Cl-] + CCO
Details | speed of sound, 298.15 K [m/s] | speed of sound, 313.15 K [m/s] | speed of sound, 328.15 K [m/s] | viscosity, 298.15 K [mPa·s] | viscosity, 313.15 K [mPa·s] | viscosity, 328.15 K [mPa·s]
x2 = 0 | 1721 | 1624 | 1560 | 21000 | 4100 | 1091
x2 = 0.0449 | – | 1606 | – | – | 2717 | –
x2 = 0.1305 | – | 1578 | 1527 | – | 1411 | 481
x2 = 0.2969 | 1579 | 1530 | 1487 | 1127 | 394 | 165
x2 = 0.4753 | 1518 | 1477 | 1438 | 186 | 88 | 45.2
x2 = 0.6858 | 1437 | – | – | 21.26 | – | –
x2 = 0.8809 | 1304 | 1258 | – | 3.5 | 2.601 | –
x2 = 0.917 | 1264 | 1218 | 1175 | 2.551 | 1.919 | 1.488
x2 = 0.955 | 1215 | 1169 | 1122 | 1.754 | 1.341 | 1.038
x2 = 0.9794 | 1179 | – | – | 1.396 | – | –

CCCCCCCCn1cc[n+](C)c1.[Cl-] + CO
Details | speed of sound, 298.15 K [m/s] | speed of sound, 313.15 K [m/s] | speed of sound, 328.15 K [m/s] | viscosity, 298.15 K [mPa·s] | viscosity, 313.15 K [mPa·s] | viscosity, 328.15 K [mPa·s]
x1 = 0.0197 | – | 1110 | 1070 | – | 0.594 | 0.497
x2 = 0 | 1721 | 1624 | 1560 | 21000 | 4100 | 1091
x2 = 0.0565 | 1683 | 1602 | 1548 | 10400 | 2450 | 760
x2 = 0.1686 | 1638 | 1578 | 1531 | 3500 | 1002 | 365
x2 = 0.2638 | 1608 | 1558 | 1514 | 1489 | 500 | 205
x2 = 0.3525 | – | 1536 | 1496 | – | 212 | 99
x2 = 0.4395 | – | 1518 | – | – | 106.7 | –
x2 = 0.5589 | – | – | 1447 | – | – | 21.44
x2 = 0.7536 | 1447 | 1406 | 1365 | 8.43 | 5.82 | 4.39
x2 = 0.8231 | 1397 | – | – | 4.19 | – | –
x2 = 0.8713 | – | 1304 | 1263 | – | 1.854 | 1.491
x2 = 0.8813 | – | 1292 | 1250 | – | 1.722 | 1.388
x2 = 0.9236 | 1274 | 1229 | 1186 | 1.416 | 1.133 | 0.93
x2 = 0.9436 | 1237 | 1192 | 1147 | 1.135 | 0.914 | 0.754

Source: a compilation of properties of binary mixtures (doi:10.1021/je060123k)
